Here are results for 25 compounds from patent US10865191B2, “Heterocyclic compounds useful as modulators of TNF alpha” (BRISTOL-MYERS SQUIBB COMPANY, priority 2015, dated 2020).

Chain of TNFα (P01375 77-233 limits assumed): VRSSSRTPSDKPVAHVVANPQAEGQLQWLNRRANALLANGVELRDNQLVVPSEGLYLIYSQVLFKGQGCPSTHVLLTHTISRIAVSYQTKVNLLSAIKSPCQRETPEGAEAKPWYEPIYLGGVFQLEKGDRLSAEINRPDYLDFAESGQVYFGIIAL

For one assay, the target named is TNFα (Homo sapiens, UniProt P01375). The assay is described as follows: TNF induced HEK-Blue assay (NF-kB-driven secreted alkaline phosphatase reporter). Format: cell-based. To be noted: TNF induced HEK-Blue assay IC50 value, TNFα 0.5 ng/mL, HEK-Blue-CD40L cells, 18 h. The essentials:
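HEK-Blue-CD40L cells (NF-kB-driven SEAP reporter), 20,000/well, added after 30 min pre-incubation of compound (0.004–25 μM final) with TNFα 0.5 ng/mL final at 37 °C; 18 h incubation. SEAP read with QUANTI-Blue at 620 nm; IC50 from 4-parameter logistic fit, normalized to unstimulated and stimulated DMSO controls.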
`CCC(Nc1c(Cl)cnc2ccc(-c3cnc(C(C)(C)O)nc3)cc12)c1ccccc1F` (racemic) [Example 190, 2-(5-(3-chloro-4-((1-(2-fluorophenyl)propyl)amino)quinolin-6-yl)pyrimidin-2-yl)propan-2-ol]: the half-maximal inhibitory concentration (IC50) (commonly the concentration that gives 50% inhibition) was under 1 µM.

The same assay, now with this note: TNFα 0.5 ng/mL, HEK-Blue-CD40L cells, 18 h; read-out: TNF induced HEK-Blue assay IC50 value.
Consider `CC(Nc1c(Cl)cnc2ccc(-c3ccc(C(C)(C)O)cc3)cc12)c1ccccn1` (racemic) [Example 175, 2-(4-(3-chloro-4-((1-(pyridin-2-yl)ethyl)amino)quinolin-6-yl)phenyl)propan-2-ol], for which the half-maximal inhibitory concentration (IC50) was under 1 µM.
Same read-out and setting: under `CC(Nc1c(Cl)cnc2ccc(-c3ccc(C(C)(C)O)cc3)cc12)c1ccncc1` (racemic) [Example 176, 2-(4-(3-chloro-4-((1-(pyridin-4-yl)ethyl)amino)quinolin-6-yl)phenyl)propan-2-ol] stands under 1 µM; under `CC(Nc1c(Cl)cnc2ccc(-c3ccc(C(C)(C)O)cc3)cc12)c1ncccn1` (racemic) [Example 177, 2-(4-(3-chloro-4-((1-(pyrimidin-2-yl)ethyl)amino)quinolin-6-yl)phenyl)propan-2-ol], under 1 µM; under `Cc1ccnc(C(C)Nc2c(Cl)cnc3ccc(-c4ccc(C(C)(C)O)cc4)cc23)n1` (racemic) [Example 178, 2-(4-(3-chloro-4-((1-(4-methylpyrimidin-2-yl)ethyl)amino)quinolin-6-yl)phenyl)propan-2-ol], under 1 µM.
On to `CC(Nc1c(Cl)cnc2ccc(-c3ccc(C(C)(C)O)cc3)cc12)c1ncco1` (racemic) [Example 179, 2-(4-(3-chloro-4-((1-(oxazol-2-yl)ethyl)amino)quinolin-6-yl)phenyl)propan-2-ol], for which the IC50 was under 1 µM.
On the same count and under the same terms, under `CC(C)(O)c1ncc(-c2ccc3ncc(Cl)c(NC(c4ccccc4F)C4CC4)c3c2)cn1` (racemic) [Example 191, 2-(5-(3-chloro-4-((cyclopropyl(2-fluorophenyl)methyl)amino)quinolin-6-yl)pyrimidin-2-yl)propan-2-ol] stands under 1 µM.
Take `CC(Nc1c(Cl)cnc2ccc(-c3ccc(C(C)(C)O)cc3)cc12)c1ccco1` (racemic) [Example 192, 2-(4-(3-chloro-4-((1-(furan-2-yl)ethyl)amino)quinolin-6-yl)phenyl)propan-2-ol]: the half-maximal inhibitory concentration (IC50) was under 1 µM.
On to `CC(Nc1c(Cl)cnc2ccc(-c3ccc(C(C)(C)O)cc3)cc12)c1nccs1` (racemic) [Example 194, 2-(4-(3-chloro-4-((1-(thiazol-2-yl)ethyl)amino)quinolin-6-yl)phenyl)propan-2-ol], for which the IC50 was under 1 µM.
With `CC(Nc1c(Cl)cnc2ccc(-c3ccc(C(C)(C)O)cc3)cc12)c1ccnn1C` (racemic) [Example 195, 2-(4-(3-chloro-4-((1-(1-methyl-1H-pyrazol-5-yl)ethyl)amino)quinolin-6-yl)phenyl)propan-2-ol], the 50% inhibitory concentration (IC50) is 10 to 25 µM.
Still for that read-out and setting: the result for `CC(Nc1c(Cl)cnc2ccc(-c3ccc(C(C)(C)O)cc3)cc12)c1ccsc1` (racemic) [Example 196, 2-(4-(3-chloro-4-((1-(thiophen-3-yl)ethyl)amino)quinolin-6-yl)phenyl)propan-2-ol] reads under 1 µM; that for `CC(Nc1c(Cl)cnc2ccc(-c3ccc(C(C)(C)O)cc3)cc12)c1cnn(C)c1` (racemic) [Example 197, 2-(4-(3-chloro-4-((1-(1-methyl-1H-pyrazol-4-yl)ethyl)amino)quinolin-6-yl)phenyl)propan-2-ol], 10 to 25 µM.
`CC(Nc1c(Cl)cnc2ccc(-c3ccc(C(C)(C)O)cc3)cc12)c1cnccn1` (racemic) [Example 198, 2-(4-(3-chloro-4-((1-(pyrazin-2-yl)ethyl)amino)quinolin-6-yl)phenyl)propan-2-ol]: the half-inhibitory concentration (IC50) was under 1 µM.
Same read-out and setting: the result for `CC(Nc1c(Cl)cnc2ccc(-c3ccc(C(C)(C)O)cc3)cc12)c1cccs1` (racemic) [Example 199, 2-(4-(3-chloro-4-((1-(thiophen-2-yl)ethyl)amino)quinolin-6-yl)phenyl)propan-2-ol] reads under 1 µM.
As to `CC(Nc1c(Cl)cnc2ccc(-c3ccc(C(C)(C)O)cc3)cc12)c1ccn(C)n1` (racemic) [Example 200, 2-(4-(3-chloro-4-((1-(1-methyl-1H-pyrazol-3-yl)ethyl)amino)quinolin-6-yl)phenyl)propan-2-ol], the half-maximal inhibitory concentration (IC50) is 1 to 10 µM.
With `CC(Nc1c(Cl)cnc2ccc(-c3ccc(C(C)(C)O)cc3)cc12)c1nccn1C` (racemic) [Example 201, 2-(4-(3-chloro-4-((1-(1-methyl-1H-imidazol-2-yl)ethyl)amino)quinolin-6-yl)phenyl)propan-2-ol], the IC50 is 10 to 25 µM.
With `CC(Nc1c(Cl)cnc2ccc(-c3ccc(C(C)(C)O)cc3)cc12)c1cscn1` (racemic) [Example 202, 2-(4-(3-chloro-4-((1-(thiazol-4-yl)ethyl)amino)quinolin-6-yl)phenyl)propan-2-ol], the half-inhibitory concentration (IC50) was under 1 µM.
Same read-out and setting: the result for `CC(Nc1c(Cl)cnc2ccc(-c3ccc(C(C)(C)O)cc3)cc12)c1cnco1` (racemic) [Example 203, 2-(4-(3-chloro-4-((1-(oxazol-5-yl)ethyl)amino)quinolin-6-yl)phenyl)propan-2-ol] reads under 1 µM.
In the case of `CC(Nc1c(Cl)cnc2ccc(-c3ccc(C(C)(C)O)cc3)cc12)c1ccoc1` (racemic) [Example 204, 2-(4-(3-chloro-4-((1-(furan-3-yl)ethyl)amino)quinolin-6-yl)phenyl)propan-2-ol], the concentration for half-maximal inhibition (IC50) was under 1 µM.
In the case of `CC(Nc1c(Cl)cnc2ccc(-c3ccc(C(C)(C)O)cc3)cc12)c1cn(C)cn1` (racemic) [Example 205, 2-(4-(3-chloro-4-((1-(1-methyl-1H-imidazol-4-yl)ethyl)amino)quinolin-6-yl)phenyl)propan-2-ol], the IC50 is under 1 µM.
On the same count and under the same terms, under `CC(Nc1c(Cl)cnc2ccc(-c3ccc(C(C)(C)O)cc3)cc12)c1cocn1` (racemic) [Example 206, 2-(4-(3-chloro-4-((1-(oxazol-4-yl)ethyl)amino)quinolin-6-yl)phenyl)propan-2-ol] stands 10 to 25 µM; under `CC(Nc1c(Cl)cnc2cc(F)c(-c3cnc(C(C)(C)O)nc3)nc12)c1ccccc1F` (racemic) [Example 209, 2-(5-(7-chloro-3-fluoro-8-((1-(2-fluorophenyl)ethyl)amino)-1,5-naphthyridin-2-yl)pyrimidin-2-yl)propan-2-ol], under 1 µM.
Consider `CC(Nc1c(Cl)cnc2ccc(-c3ccc(C(C)(C)O)cc3)cc12)c1cncn1C` (racemic) [Example 210, 2-(4-(3-chloro-4-((1-(1-methyl-1H-imidazol-5-yl)ethyl)amino)quinolin-6-yl)phenyl)propan-2-ol], for which the IC50 was under 1 µM.
The same measure, in the same setting: the result for `CC(Nc1c(Cl)cnc2ccc(-c3ccc(C(C)(C)O)cc3)cc12)c1cncs1` (racemic) [Example 211, 2-(4-(3-chloro-4-((1-(thiazol-5-yl)ethyl)amino)quinolin-6-yl)phenyl)propan-2-ol] reads under 1 µM; that for `CC(C)(O)c1ncc(-c2nc3c(NC(c4ccccc4)C(F)F)c(Cl)cnc3cc2F)cn1` (racemic) [Example 212, 2-(5-(7-chloro-8-((2,2-difluoro-1-phenylethyl)amino)-3-fluoro-1,5-naphthyridin-2-yl)pyrimidin-2-yl)propan-2-ol], under 1 µM.
